Source: US10988445B2 (AstraZeneca AB, priority 2015, dated 2021)

Test system: human TH17 cells
Assay: Inhibition of IL-17 release from human TH17 cells
Format: cell-based
Conditions: isolated human TH17 cells, 4 days culture, IL-17A by HTRF; for IC50: Homo sapiens, 96 h, read-out: pIC50 IL-17 release (converted)
In short: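 TH17 cells (CD4+CXCR3-CCR6+) enriched from healthy-donor PBMC isolated from heparinized whole blood. Supernatants collected on day 4; IL-17A quantified by HTRF.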

N#CC1(C(=O)N2Cc3cc(S(=O)(=O)C4CC4)ccc3C2C(=O)Nc2ccc(C(O)(C(F)(F)F)C(F)(F)F)cc2)CC1 (stereo not shown) [Example 607, 2-[(1-Cyanocyclopropyl)carbonyl]-5-(cyclopropylsulfonyl)-N-[4-(1,1,1,3,3,3-hexafluoro-2-hydroxypropan-2-yl)phenyl]-2,3-dihydro-1H-isoindole-1-carboxamide]
IC50: 39.8 nM

CCS(=O)(=O)c1ccc2c(c1)CN(C(=O)CC1(O)CC1)C2C(=O)Nc1ccc(C(O)(C(F)(F)F)C(F)(F)F)cc1 (stereo not shown) [Example 107, 5-(Ethylsulfonyl)-N-[4-(1,1,1,3,3,3-hexafluoro-2-hydroxypropan-2-yl)phenyl]-2-[(1-hydroxycyclopropyl)acetyl]-2,3-dihydro-1H-isoindole-1-carboxamide]
IC50: 50.1 nM

CC(C)OC(=O)N1Cc2cc(S(C)(=O)=O)ccc2C1C(=O)Nc1ccc(C(O)(C(F)(F)F)C(F)(F)F)cc1 (stereo not shown) [Example 420, Propan-2-yl 1-{[4-(1,1,1,3,3,3-hexafluoro-2-hydroxypropan-2-yl)phenyl]carbamoyl}-5-(methylsulfonyl)-1,3-dihydro-2H-isoindole-2-carboxylate]
IC50: 79.4 nM

COC1(C(=O)N2Cc3cc(S(=O)(=O)CC4CC4)ccc3C2C(=O)Nc2ccc(C(O)(C(F)(F)F)C(F)(F)F)cc2)CC1 (stereo not shown) [Example 212, 5-[(Cyclopropylmethyl)sulfonyl]-N-[4-(1,1,1,3,3,3-hexafluoro-2-hydroxypropan-2-yl)phenyl]-2-[(1-methoxycyclopropyl)carbonyl]-2,3-dihydro-1H-isoindole-1-carboxamide]
IC50: 15.8 nM

CC(C)[C@H](O)C(=O)N1Cc2cc(S(C)(=O)=O)ccc2C1C(=O)Nc1ccc(C(O)(C(F)(F)F)C(F)(F)F)cc1 (single isomer, unassigned) [Example 423]
IC50: 79.4 nM

CCC(OC)C(=O)N1Cc2cc(S(=O)(=O)NC)ccc2C1C(=O)Nc1ccc(C(O)(C(F)(F)F)C(F)(F)F)cc1 (stereo not shown) [Example 312, N-[4-(1,1,1,3,3,3-Hexafluoro-2-hydroxypropan-2-yl)phenyl]-2-(2-methoxybutanoyl)-5-(methylsulfamoyl)-2,3-dihydro-1H-isoindole-1-carboxamide]
IC50: 39.8 nM

O=C(Nc1ccc(C(O)(C(F)(F)F)C(F)(F)F)cc1)C1NCc2cc(S(=O)(=O)CC3(O)CC3)ccc21 (stereo not shown) [Example 1100, N-[4-(1,1,1,3,3,3-Hexafluoro-2-hydroxypropan-2-yl)phenyl]-5-{[(1-hydroxycyclopropyl)methyl]sulfonyl}-2,3-dihydro-1H-isoindole-1-carboxamide]
IC50: 200 nM

CC(=O)N1Cc2cc(S(C)(=O)=O)ccc2C1C(=O)Nc1ccc(C(O)(C(F)(F)F)C(F)(F)F)c(F)c1 (stereo not shown) [Example 435, 2-Acetyl-N-[3-fluoro-4-(1,1,1,3,3,3-hexafluoro-2-hydroxypropan-2-yl)phenyl]-5-(methylsulfonyl)-2,3-dihydro-1H-isoindole-1-carboxamide]
IC50: 20 nM

CNC(=O)N1Cc2cc(S(=O)(=O)C3CC3)ccc2C1C(=O)Nc1ccc(C(O)(C(F)(F)F)C(F)(F)F)cc1 (stereo not shown) [Example 610]
IC50: 63.1 nM

CCS(=O)(=O)c1ccc2c(c1)CN(C(=O)CC1(OC)CC1)C2C(=O)Nc1ccc(C(O)(C(F)(F)F)C(F)(F)F)cc1 (stereo not shown) [Example 112, 5-(Ethylsulfonyl)-N-[4-(1,1,1,3,3,3-hexafluoro-2-hydroxypropan-2-yl)phenyl]-2-[(1-methoxycyclopropyl)acetyl]-2,3-dihydro-1H-isoindole-1-carboxamide]
IC50: 31.6 nM

COC1(C(=O)N2Cc3cc(S(C)(=O)=O)ccc3C2C(=O)Nc2ccc(C(O)(C(F)(F)F)C(F)(F)F)c(F)c2)CC1 (stereo not shown) [Example 440, N-[3-Fluoro-4-(1,1,1,3,3,3-hexafluoro-2-hydroxypropan-2-yl)phenyl]-2-[(1-methoxycyclopropyl)carbonyl]-5-(methylsulfonyl)-2,3-dihydro-1H-isoindole-1-carboxamide]
IC50: 31.6 nM

COCCS(=O)(=O)c1ccc2c(c1)CN(C=O)C2C(=O)Nc1ccc(C(O)(C(F)(F)F)C(F)(F)F)cc1 (stereo not shown) [Example 701, 2-Formyl-N-[4-(1,1,1,3,3,3-hexafluoro-2-hydroxypropan-2-yl)phenyl]-5-[(2-methoxyethyl)sulfonyl]-2,3-dihydro-1H-isoindole-1-carboxamide]
IC50: 15.8 nM

CC1(C(=O)N2Cc3cc(S(C)(=O)=O)ccc3C2C(=O)Nc2ccc(C(O)(C(F)(F)F)C(F)(F)F)cc2)COC1 (stereo not shown) [Example 443]
IC50: 100 nM

CCS(=O)(=O)c1ccc2c(c1)CN(C(=O)C1CCOC1)C2C(=O)Nc1ccc(C(O)(C(F)(F)F)C(F)(F)F)cc1 (stereo not shown) [Example 113, 5-(Ethylsulfonyl)-N-[4-(1,1,1,3,3,3-hexafluoro-2-hydroxypropan-2-yl)phenyl]-2-(tetrahydrofuran-3-ylcarbonyl)-2,3-dihydro-1H-isoindole-1-carboxamide]
IC50: 79.4 nM

CC(=O)N1Cc2cc(S(C)(=O)=O)ccc2C1C(=O)Nc1ccc(C(O)(C(F)(F)F)C(F)(F)F)cc1F (stereo not shown) [Example 437, 2-Acetyl-N-[2-fluoro-4-(1,1,1,3,3,3-hexafluoro-2-hydroxypropan-2-yl)phenyl]-5-(methylsulfonyl)-2,3-dihydro-1H-isoindole-1-carboxamide]
IC50: 20 nM

CC[C@H](O)C(=O)N1Cc2cc(S(=O)(=O)NC)ccc2C1C(=O)Nc1ccc(C(O)(C(F)(F)F)C(F)(F)F)cc1 (single isomer, unassigned) [Example 307, isomer 2, (R) or (S)N-[4-(1,1,1,3,3,3-Hexafluoro-2-hydroxypropan-2-yl)phenyl]-2-[(2S)-2-hydroxybutanoyl]-5-(methylsulfamoyl)-2,3-dihydro-1H-isoindole-1-carboxamide]
pIC50 IL-17 release (listed as 307, isomer 2): 6.5

CCS(=O)(=O)c1ccc2c(c1)CN(C(=O)C1(CO)CC1)C2C(=O)Nc1ccc(C(O)(C(F)(F)F)C(F)(F)F)cc1 (stereo not shown) [Example 117, 5-(Ethylsulfonyl)-N-[4-(1,1,1,3,3,3-hexafluoro-2-hydroxypropan-2-yl)phenyl]-2-{[1-(hydroxymethyl)cyclopropyl]carbonyl}-2,3-dihydro-1H-isoindole-1-carboxamide]
IC50: 79.4 nM

CS(=O)(=O)c1ccc2c(c1)CN(C(=O)Cc1ccccc1)C2C(=O)Nc1ccc(C(O)(C(F)(F)F)C(F)(F)F)cc1 (stereo not shown) [Example 402, N-[4-(1,1,1,3,3,3-Hexafluoro-2-hydroxypropan-2-yl)phenyl]-5-(methylsulfonyl)-2-(phenylacetyl)-2,3-dihydro-1H-isoindole-1-carboxamide]
IC50: 12.6 nM

CCNC(=O)N1Cc2cc(S(C)(=O)=O)ccc2C1C(=O)Nc1ccc(C(O)(C(F)(F)F)C(F)(F)F)cc1 (stereo not shown) [Example 454, N^2-Ethyl-N^1-[4-(1,1,1,3,3,3-hexafluoro-2-hydroxypropan-2-yl)phenyl]-5-(methylsulfonyl)-1,3-dihydro-2H-isoindole-1,2-dicarboxamide]
IC50: 39.8 nM

CNS(=O)(=O)c1ccc2c(c1)CN(C(=O)COC)C2C(=O)Nc1ccc(C(O)(C(F)(F)F)C(F)(F)F)cc1 (stereo not shown) [Example 308, N-[4-(1,1,1,3,3,3-Hexafluoro-2-hydroxypropan-2-yl)phenyl]-2-(methoxyacetyl)-5-(methylsulfamoyl)-2,3-dihydro-1H-isoindole-1-carboxamide]
IC50: 31.6 nM

O=C(Nc1ccc(C(O)(C(F)(F)F)C(F)(F)F)cc1)C1NCc2cc(S(=O)(=O)CC3CC3)ccc21 (stereo not shown) [Example 200, 5-[(Cyclopropylmethyl)sulfonyl]-N-[4-(1,1,1,3,3,3-hexafluoro-2-hydroxypropan-2-yl)phenyl]-2,3-dihydro-1H-isoindole-1-carboxamide]
IC50: 31.6 nM

CCS(=O)(=O)c1ccc2c(c1)CN(C(=O)CC#N)C2C(=O)Nc1ccc(C(O)(C(F)(F)F)C(F)(F)F)cc1 (stereo not shown) [Example 116, 2-(Cyanoacetyl)-5-(ethylsulfonyl)-N-[4-(1,1,1,3,3,3-hexafluoro-2-hydroxypropan-2-yl)phenyl]-2,3-dihydro-1H-isoindole-1-carboxamide]
IC50: 200 nM

O=C(Nc1ccc(C(O)(C(F)(F)F)C(F)(F)F)cc1)C1c2ccc(S(=O)(=O)C3CC3)cc2CN1C(=O)[C@@H]1CCCO1 (stereo partly drawn) [Example 608, 5-(Cyclopropylsulfonyl)-N-[4-(1,1,1,3,3,3-hexafluoro-2-hydroxypropan-2-yl)phenyl]-2-[(2S)-tetrahydrofuran-2-ylcarbonyl]-2,3-dihydro-1H-isoindole-1-carboxamide]
IC50: 39.8 nM

CS(=O)(=O)c1ccc2c(c1)CN(C(=O)CC1(O)CC1)C2C(=O)Nc1ccc(C(O)(C(F)(F)F)C(F)(F)F)cc1 (stereo not shown) [Example 412, N-[4-(1,1,1,3,3,3-Hexafluoro-2-hydroxypropan-2-yl)phenyl]-2-[(1-hydroxycyclopropyl)acetyl]-5-(methylsulfonyl)-2,3-dihydro-1H-isoindole-1-carboxamide]
IC50: 25.1 nM

CC[C@@H](O)C(=O)N1Cc2cc(S(=O)(=O)NC)ccc2C1C(=O)Nc1ccc(C(O)(C(F)(F)F)C(F)(F)F)cc1 (single isomer, unassigned) [Example 303, isomer 2]
pIC50 IL-17 release (listed as 303, isomer 2): 7.5

CCOC(=O)N1Cc2cc(S(=O)(=O)CC3CC3)ccc2C1C(=O)Nc1ccc(C(O)(C(F)(F)F)C(F)(F)F)cc1 (stereo not shown) [Example 204, Ethyl 5-[(cyclopropylmethyl)sulfonyl]-1-{[4-(1,1,1,3,3,3-hexafluoro-2-hydroxypropan-2-yl)phenyl]carbamoyl}-1,3-dihydro-2H-isoindole-2-carboxylate]
IC50: 7.94 nM

CNS(=O)(=O)c1ccc2c(c1)CN(C(=O)OC)C2C(=O)Nc1ccc(C(O)(C(F)(F)F)C(F)(F)F)cc1 (stereo not shown) [Example 304, Methyl 1-{[4-(1,1,1,3,3,3-hexafluoro-2-hydroxypropan-2-yl)phenyl]carbamoyl}-5-(methylsulfamoyl)-1,3-dihydro-2H-isoindole-2-carboxylate]
IC50: 12.6 nM

CC[C@@H](O)C(=O)N1Cc2cc(S(C)(=O)=O)ccc2C1C(=O)Nc1ccc(C(O)(C(F)(F)F)C(F)(F)F)cc1 (single isomer, unassigned) [Example 409, isomer 1]
IC50: 63.1 nM
